The NIST ThermoML archive (doi:10.1021/je060271a)

Conditions: 323.15 K, Liquid, Vibrating tube method

CCCCCCC(=O)OCC(COC(=O)CCCCCC)(COC(=O)CCCCCC)COC(=O)CCCCCC [pentaerythritol tetraheptanoate]
Conditions	mass density [kg/m3]
102 kPa	955.7
102.5 kPa	955.6
102.8 kPa	955.6
103.5 kPa	955.7
104.8 kPa	955.6
106.8 kPa	955.7
109.1 kPa	955.7
113.5 kPa	955.6
119 kPa	955.5
127.2 kPa	955.7
130.7 kPa	955.6
133.3 kPa	955.7
136.2 kPa	955.6
136.9 kPa	955.6
138 kPa	955.7
138.5 kPa	955.6
139.2 kPa	955.7
139.5 kPa	955.6
140.6 kPa	955.6
144.4 kPa	955.7
144.9 kPa	955.7
145.8 kPa	955.6
147.5 kPa	955.7
152.7 kPa	955.6
153.6 kPa	955.7
154.3 kPa	955.6
155.5 kPa	955.8
156.6 kPa	955.8
157.4 kPa	955.7
158.7 kPa	955.7
159.7 kPa	955.7
161.8 kPa	955.7
163.2 kPa	955.6
164.2 kPa	955.7
165.3 kPa	955.8
166.8 kPa	955.6
168 kPa	955.8
169.3 kPa	955.7
170.8 kPa	955.7
172 kPa	955.6
173.3 kPa	955.7
175 kPa	955.8
176.4 kPa	955.7
177.9 kPa	955.7
179.7 kPa	955.6
181.2 kPa	955.7
182.8 kPa	955.8
184.6 kPa	955.9
186.5 kPa	955.7
188 kPa	955.7
190.1 kPa	955.7
193.9 kPa	955.7
196.2 kPa	955.6
241.4 kPa	955.7
245.4 kPa	955.7
265.6 kPa	955.7
319.3 kPa	955.8
340.6 kPa	955.9
347.8 kPa	955.9
364.8 kPa	955.8
373.5 kPa	955.8
449.4 kPa	955.8
461.8 kPa	955.9
492.2 kPa	955.9
510.3 kPa	955.9
526.4 kPa	955.8
543.6 kPa	956
565.9 kPa	955.9
711.1 kPa	955.8
779.6 kPa	956.2
814.3 kPa	956.1
1089.1 kPa	956.3
1094 kPa	956.3
1098.2 kPa	956.3
1102.3 kPa	956.3
1107 kPa	956.4
1111.5 kPa	956.4
1115.9 kPa	956.4
1120.4 kPa	956.4
1125.8 kPa	956.5
1130.3 kPa	956.4
1134.8 kPa	956.4
1139 kPa	956.5
1144.5 kPa	956.3
1149 kPa	956.4
1153.9 kPa	956.4
1159.3 kPa	956.3
1168.5 kPa	956.5
1178.6 kPa	956.4
1183.8 kPa	956.5
1189 kPa	956.4
1195.1 kPa	956.5
1199.8 kPa	956.4
1204.6 kPa	956.4
1209.5 kPa	956.5
1220.6 kPa	956.5
1225.4 kPa	956.4
1231.5 kPa	956.5
1236.9 kPa	956.4
1242.6 kPa	956.5
1253.4 kPa	956.3
1258.4 kPa	956.6
1263.5 kPa	956.3
1275.6 kPa	956.5
1281.2 kPa	956.4
1286.7 kPa	956.4
1293.2 kPa	956.5
1298.9 kPa	956.4
1304.6 kPa	956.7
1311.6 kPa	956.5
1317.3 kPa	956.6
1323 kPa	956.5
1328.9 kPa	956.5
1421.1 kPa	956.7
1427.4 kPa	956.6
1434.2 kPa	956.7
1442 kPa	956.6
1448.9 kPa	956.6
1457.1 kPa	956.6
1463.5 kPa	956.7
1470.3 kPa	956.7
1477.4 kPa	956.6
1485.6 kPa	956.6
1492.5 kPa	956.6
1499.8 kPa	956.7
1507.4 kPa	956.7
1523.2 kPa	956.6
1619.7 kPa	956.8
1629.6 kPa	956.7
1719.4 kPa	956.9
1728.2 kPa	956.8
1736.9 kPa	956.8
1745.9 kPa	956.8
1775.6 kPa	956.9
2116.8 kPa	957.1
2152.2 kPa	957.1
2381.2 kPa	957.2
2470.4 kPa	957.3
2492.4 kPa	957.2
2508.4 kPa	957.3
2527.1 kPa	957.3
2559.7 kPa	957.3
3115.5 kPa	957.7
3137.8 kPa	957.7
3159 kPa	957.8
3207.3 kPa	957.8
3229.7 kPa	957.7
3644.1 kPa	958
3670.9 kPa	958.1
3703.5 kPa	958.2
3731.4 kPa	958.2
3759.3 kPa	958.1
3792.9 kPa	958.3
3822.5 kPa	958.2
3850.4 kPa	958.2
3884.5 kPa	958.2
3913.6 kPa	958.2
3943.3 kPa	958.4
4059.8 kPa	958.5
4061.6 kPa	958.4
4063.3 kPa	958.4
8709 kPa	961.5
8730.4 kPa	961.5
8752.3 kPa	961.6
8778.6 kPa	961.5
8802.6 kPa	961.5
8824.6 kPa	961.6
8846.3 kPa	961.7
8868.4 kPa	961.6
8895.1 kPa	961.7
8917.5 kPa	961.5
8944.2 kPa	961.7
8967 kPa	961.7
8990.1 kPa	961.6
9017.1 kPa	961.7
9040.1 kPa	961.7
9063.7 kPa	961.7
9091.6 kPa	961.8
9116.3 kPa	961.8
9139.9 kPa	961.8
9164 kPa	961.8
9192.5 kPa	961.9
9216.2 kPa	961.8
9269.5 kPa	962
9293.8 kPa	961.9
9318.4 kPa	962
9348.8 kPa	961.9
9373.9 kPa	961.9
9399.6 kPa	962
9431.8 kPa	962.1
9459.4 kPa	962.1
9492.7 kPa	962.1
9518.2 kPa	962
9535.7 kPa	962
9548.7 kPa	962.2
9563.6 kPa	962.2
9576.4 kPa	962.1
9591.9 kPa	962.1
9617.9 kPa	962
9633.3 kPa	961.9
9646.7 kPa	962.2
9660.3 kPa	962.1
9673.6 kPa	962.1
9689.4 kPa	962.3
9702.7 kPa	962.2
9716.1 kPa	962.2
9732.2 kPa	962.1
9788.5 kPa	962.2
9802.3 kPa	962.3
9818.5 kPa	962.2
9832.1 kPa	962.3
9845.9 kPa	962.3
9862.6 kPa	962.3
9876.5 kPa	962.3
9890.5 kPa	962.4
9906.8 kPa	962.3
9920.8 kPa	962.3
9951.3 kPa	962.3
10010 kPa	962.4
10071 kPa	962.3
10088 kPa	962.5
10103 kPa	962.5
10117 kPa	962.4
